Measurements taken from the NIST ThermoML archive (doi:10.1016/j.jct.2018.04.007).

Key:
[1] = molar heat capacity at constant pressure; wn = mass fraction of the nth substance listed; details: 96.2 kPa, Liquid, DSC, w1 = 0.3
[2] = wn = mass fraction of the nth substance listed; details: 96.2 kPa, Liquid, w1 = 0.3; for viscosity: Cone and plate viscometry; for mass density: Pycnometric method; for thermal conductivity: transient hot wire

CC(O)CO (stereo unspecified) [1,2-propanediol] + O
Details | mass density, [2] [kg/m3] | molar heat capacity at constant pressure, [1] [J/K/mol] | thermal conductivity, [2] [W/m/K] | viscosity, [2] [mPa·s]
293.15 K | 1023.1 | 89.44 | 0.443 | 3.02
303.15 K | 1019.2 | 90 | 0.454 | 2.2
313.15 K | 1014.5 | 90.52 | 0.463 | 1.61
323.15 K | 1009 | 91.03 | 0.472 | 1.31
